One assay deals with mixed species biofilm. Description: Seahorse XFe Extracellular Flux Analyzer, bacterial metabolism (OCR/ECAR) in mixed species biofilm. To be noted: oxygen consumption rate. The class given is cell-based. The protocol:
(§1) Samples with varying amounts of cannabidiol (CBD) are assessed for their effects on cellular metabolism with and without various source of zinc. Using the Seahorse XF^e Extracellular Flux Analyzer, biofilm samples are grown for 48 hrs. […] The biofilms are harvested for culture. Diluted biofilm and toothpaste slurry are loaded to each well. Glycolysis—Extracellular Acidification Rate (ECAR) and Mitochondrial Respiration—Oxygen Consumption Rate (OCR) is measured for 25-50 cycles (˜360 minutes). […] The “CBD Oil” is 5% CBD (by wt. of the CBD Oil) in Hemp seed oil.
Where the “OCR” is oxygen consumption rate units as measured using the Seahorse XF^e Extracellular Flux Analyzer.: […]

The subject of the next assay is S. mutans biofilms. Description: Seahorse XFe Extracellular Flux Analyzer, bacterial metabolism (OCR/ECAR) in S. mutans biofilm. The format is cell-based. To be noted: CBD and arginine slurries. The procedure: as §1

We go through three compounds from patent publication US20240091115A1, “Oral Care Compositions and Methods of Use” (Colgate-Palmolive Company, priority 2019, published 2024).

In the case of `[F][Sn][F]` [0.2% by wt. Stannous Fluoride, Stannous Fluoride], in the assay on mixed species biofilm (Table 3, mixed species biofilm, CBD and stannous fluoride slurries, untreated 11489.9), the “Average (OCR) (p mole/min)” value is recorded as 10440.7 p mole/min.

Consider `N=C(N)NCCC[C@H](N)C(=O)O` [1% Arg, arginine], for which the “OCR Value (p mole/min)” value with S. mutans biofilms (Table 4, oxygen consumption rate, untreated 1449.50) is on record as 518.58 p mole/min. In addition, the “ECR Value (mpH/min)” value with S. mutans biofilms (Table 5, extracellular acidification rate, untreated 701.2) was 518.6 mpH/min.

Consider `CC(O)C(=O)[O-].CC(O)C(=O)[O-].[Zn+2]` (stereo not shown) [1.5% Zinc Lactate, Zinc Lactate], for which, in the assay with mixed species biofilm (Table 1, mixed biofilm, CBD and zinc lactate, untreated 25,669.50), the “Average (OCR) (p mole/min)” value is recorded as 21,900.63 p mole/min.
